Data: patent US20120196899A1, “METHODS AND PRODUCTS FOR TREATING INFLAMMATION” (Rock Creek Pharmaceuticals, Inc., priority 2010, published 2012)

What was measured:
7W CHO cells = experiment: Toxicity in 7W CHO cells; type: cell-based
[1] = tested on: Experimental Autoimmune Thyroiditis; experiment: Experimental Autoimmune Thyroiditis (Example 16A): thyroid histopathology; type: in vivo, mice; conditions: 0.05 mg/ml in drinking water, day 21, p=0.05
Experimental: Thyroiditis was induced by injection of thyroglobulin emulsified in complete Freund's adjuvant (CFA). On days 0 and 7, female mice received subcutaneous injection of 100 μg thyroglobulin (2 injections of 50 μg each). Control mice drank water. […] Mice were sacrificed on day 21.
Thyroid histopathology. Thyroid glands were removed. One lobe was fixed in formalin for histopathology. One lobe was frozen for immunohistochemistry. The extent of lymphocytic infiltration and destruction of the thyroid gland was assessed digitally. Initially, the entire thyroid lobe was examined. […] The final score was expressed as the percent of the thyroid area infiltrated by lymphocytes and damaged. The results are shown graphically in FIG. 42. […] Photomicrographs of hematoxylin- and eosin-stained thyroids from control and anatabine-treated mice are shown in FIG. 43A (control) and FIG. 43B (anatabine-treated).

## C1=CCC(c2cccnc2)NC1 (racemic) [Anatabine, 1,2,3,6-tetrahydro-[2,3′]bipyridinyl]
7W CHO cells
  toxicity: No toxicity was observed
[1]
  thyroid pathology (percent of thyroid area infiltrated and damaged): developed less severe thyroiditis than control mice
